Assay results reported in publication PMC3664642, “A Peptide against Soluble Guanylyl Cyclase α1: A New Approach to Treating Prostate Cancer” (PLoS ONE, 2013).
Entries after “also recorded” stand apart in the source; their conditions may differ. Where no end group is shown, it is not given here.

What was measured:
[1] = target: T1, sGCα1 (Homo sapiens, UniProt Q02108); experiment: Immunocytochemistry co-localization in LNCaP cells; assay type: cell-based; conditions: 25 µM Biotin-labeled Peptide A-8R, 2 hrs, Fig. 2A
T1 sequence (Q02108 1-690): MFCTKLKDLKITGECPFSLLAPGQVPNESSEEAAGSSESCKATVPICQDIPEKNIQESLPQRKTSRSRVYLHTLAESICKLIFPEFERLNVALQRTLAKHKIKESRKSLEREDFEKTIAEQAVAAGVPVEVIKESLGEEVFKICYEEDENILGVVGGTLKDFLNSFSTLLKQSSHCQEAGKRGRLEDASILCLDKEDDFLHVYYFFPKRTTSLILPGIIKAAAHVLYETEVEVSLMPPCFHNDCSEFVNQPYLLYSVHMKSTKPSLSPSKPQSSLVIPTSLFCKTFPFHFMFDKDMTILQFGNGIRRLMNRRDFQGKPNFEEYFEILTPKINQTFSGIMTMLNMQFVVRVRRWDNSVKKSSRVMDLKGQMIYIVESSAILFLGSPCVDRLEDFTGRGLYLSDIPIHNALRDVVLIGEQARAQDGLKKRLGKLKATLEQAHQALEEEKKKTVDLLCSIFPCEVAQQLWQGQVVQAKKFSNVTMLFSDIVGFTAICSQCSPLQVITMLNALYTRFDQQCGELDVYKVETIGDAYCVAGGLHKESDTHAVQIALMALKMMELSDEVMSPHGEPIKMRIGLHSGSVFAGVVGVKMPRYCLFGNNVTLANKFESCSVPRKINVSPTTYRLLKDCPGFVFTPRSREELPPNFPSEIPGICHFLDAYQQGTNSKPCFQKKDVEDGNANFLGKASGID
Method: Immunocytochemistry was used to study the subcellular localization of sGCα1 and Biotin-labeled Peptide-8R in LNCaP cells. FITC-labeled anti-sGCα1 antibody (1∶100 dilution; Santa Cruz Biotechnology), anti-Biotin antibody (1∶200; Santa Cruz Biotechnology) were used for immunocytochemisty as described.
(§1) Figure 2 Peptide A-8R interacts with sGCα1 in prostate cancer cells. (A) LNCaP cells were treated with 25 µM Biotin-labeled Peptide A-8R for 2 hrs and subjected to immunocytochemistry using anti-sGCα1 or anti-Biotin antibody to measure subcellular co-localization of endogenous sGCα1 and Peptide A-8R. DAPI was used to stain nuclei. (B) LNCaP cytosolic extracts were incubated with Peptide A-8R-Biotin and subjected to purification using streptavidin-agarose. This pull-down experiment was repeated with competing excess amount of unlabeled Peptide C-8R or Peptide A-8R. In both cases Western blotting was used to measure the co-purification of sGCα1. (C) LNCaP cell extract was incubated with different concentrations of Peptide A-8R-FITC and endogenous sGCα1 was immunoprecipitated. Co-purified Peptide A-8R-FITC was quantified by measuring fluorescence signal emission. Nonlinear regression analysis was used to determine an affinity for Peptide A-8R binding to sGCα1. […] Cell number was measured after 0–48 hrs of incubation. […]

[2] = target: T1, sGCα1; experiment: Biotin pulldown and competition from LNCaP extract; assay type: binding; conditions: competition, 150 µg unlabeled peptide vs 5 µg Peptide A-8R-Biotin; Fig. 2B
Method: Immunoprecipitation (IP) in LNCaP cells was performed as described previously. Whole-cell extracts from LNCaP cells were subjected to IP using Protein A/G plus Agarose (Santa Cruz). IP antibodies were against sGCα1 (Cayman Chemical), sGCβ1 (Cayman Chemical), or rabbit IgG (Santa Cruz) as control. For Biotin pulldown, 5 µg Biotin-labeled Peptide A was incubated with NeutrAvidin Agarose Resin (Thermo Scientific) for 3 hours at 4°C, after which whole-cell extract from LNCaP cells was added and incubated overnight at 4°C. Resin was washed and eluted with SDS Sample buffer, followed by SDS-PAGE gel electrophoresis.
as §1, with “(C) LNCaP cell extract was incubated with different concentrations of Peptide A-8R-FITC and endogenous sGCα1 was immunoprecipitated.” left out, “emission.” for “emission. Nonlinear regression analysis was used to determine an affinity for Peptide A-8R binding to sGCα1.”

[3] = tested on: DNA damage in C81 cells; experiment: Comet assay (DNA damage); assay type: cell-based; conditions: C81, 1 hr, Fig. 4C
Method: C81 cells were treated with Peptide A-8R for 1 hour, following a 2-hour pretreatment with 5 mM NAC or Vehicle, and trypsinized, and mixed with Comet LM-Agarose (CometAssay, […]) and transferred to slides. Electrophoresis and Sybr-Green staining was carried out according to manufacturer’s protocol.
Figure 4 Peptide A-8R kills prostate cancer cells by mediating ROS generation. (A) C81 cells were treated with Vehicle or different µMolar concentrations of Peptide A-8R and without or with 0–5 mM NAC and monitored for ROS generation after 0–30 min as measured by fluorescence intensity (FI). Bar graphs represent averages of three independent experiments plus standard deviations. Note that asterisks on bar graphs found with NAC are compared to equivalent data without NAC. (B) C81 cells were treated with Vehicle or different concentrations of Peptide A-8R, as shown, and 0–5 mM NAC, as shown, and monitored for cell number after 0–6 days of incubation as measured by MTT assay. Data points represent averages of three independent experiments plus standard deviations. Asterisks indicate statistical significance (P<0.04). (C) C81 cells were treated with Vehicle or different concentrations of Peptide A-8R, as shown, and with or without 5 mM NAC, as shown, and monitored DNA damage after 1 hr incubation as measured by Comet assay.

[4] = tested on: LNCaP xenograft tumors; experiment: LNCaP mouse xenograft tumor study; assay type: in vivo; conditions: direct intratumoral injection; three animals per treatment; P<0.0005; Fig. S8
Method: […] When tumor sizes reached 200 mm^3, 50 µL of Peptide A-8R (40 mg Peptide A-8R/Kg of animal) or Vehicle (DMSO) was directly injected into the tumors every other day. Injections were stopped after 5 times and tumors were measured every 3 days. Mice were euthanized after 3 weeks and tumors were excised. All procedures were approved by the University of Toledo Division of Lab Animal Recourses (DLAR). Protein extracts were prepared by boiling the tumor tissue in 3× SDS buffer, and evaluated by SDS-PAGE gel.
Mouse xenograft tumors derived from LNCaP cells were treated with Vehicle or Peptide A-8R, after which they were allowed to grow for an additional three weeks without treatment. Data points represent average tumor size of three animals for each treatment plus standard deviations. Note that there is a statistical difference (P<0.0005) in average tumor size for each day of tumor measurement. Arrow represents day of last injection of Vehicle or Peptide A-8R. (TIF) Click here for additional data file.

## Ac-TFCKAFPFHIIRRRRRRRR [Peptide A-8R]
[1]
  co-localization with sGCα1: colocalizes with sGCα1 only in the cytoplasm of LNCaP cells
[2]
  inhibition of Peptide A-8R-Biotin interaction with sGCα1: significantly inhibited Peptide A-8R-Biotin interaction with sGCα1
[3]; 10 µM
  DNA damage (Comet): induced weakly
[3]; 25 µM
  DNA damage (Comet): much more strongly
[3]; 50 µM
  DNA damage (Comet): does not elicit a Comet signal
[4]
  anti-tumor activity, LNCaP xenograft: able to stop tumor growth; also recorded: strong anti-tumor activity; also recorded: blocks the growth of LNCaP prostate tumors
